ChEMBL document CHEMBL5120882, “Medicinal Chemistry Perspective on Targeting Mono-ADP-Ribosylating PARPs with Small Molecules” (J Med Chem, 2022)

Experiments:
[1] = target: T1, Protein mono-ADP-ribosyltransferase PARP3 (Homo sapiens, UniProt Q9Y6F1); assay: Inhibition of recombinant human PARP3 using IRE-1 as substrate incubated for 1 hr by chemiluminescence assay
T1 sequence (Q9Y6F1 whole entry): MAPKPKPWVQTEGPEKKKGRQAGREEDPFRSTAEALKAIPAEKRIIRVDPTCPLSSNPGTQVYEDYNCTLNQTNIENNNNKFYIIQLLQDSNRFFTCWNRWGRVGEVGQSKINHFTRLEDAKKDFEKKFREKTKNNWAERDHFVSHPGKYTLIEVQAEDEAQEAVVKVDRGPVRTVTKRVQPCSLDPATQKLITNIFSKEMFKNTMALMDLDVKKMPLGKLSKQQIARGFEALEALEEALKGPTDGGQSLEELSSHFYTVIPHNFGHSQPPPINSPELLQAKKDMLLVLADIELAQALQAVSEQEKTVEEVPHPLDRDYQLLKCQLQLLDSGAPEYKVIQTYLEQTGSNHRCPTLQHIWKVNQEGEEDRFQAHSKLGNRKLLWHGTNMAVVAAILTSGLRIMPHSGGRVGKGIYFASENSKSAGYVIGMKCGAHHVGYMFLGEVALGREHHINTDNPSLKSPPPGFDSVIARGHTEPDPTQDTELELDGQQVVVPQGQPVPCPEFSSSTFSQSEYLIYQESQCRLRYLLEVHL

[2] = target: T2, Protein mono-ADP-ribosyltransferase PARP16 (Homo sapiens, UniProt Q8N5Y8); assay: Inhibition of PARP16 (unknown origin) using IRE-1 as substrate incubated for 1 hr by chemiluminescence assay
T2 sequence (Q8N5Y8 whole entry): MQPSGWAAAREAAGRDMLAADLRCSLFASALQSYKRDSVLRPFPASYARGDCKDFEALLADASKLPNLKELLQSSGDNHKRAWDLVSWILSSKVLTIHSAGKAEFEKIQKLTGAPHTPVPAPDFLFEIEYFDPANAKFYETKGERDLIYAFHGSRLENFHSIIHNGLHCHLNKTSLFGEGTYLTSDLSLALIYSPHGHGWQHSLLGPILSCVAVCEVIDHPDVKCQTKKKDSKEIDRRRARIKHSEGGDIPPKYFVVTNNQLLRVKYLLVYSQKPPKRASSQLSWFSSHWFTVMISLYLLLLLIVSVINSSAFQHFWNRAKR

[3] = test system: NCI-H1373; assay: Antitumor activity against human NCI-H1373 cells in xenograft model assessed as tumor growth inhibition relative to control; type: functional; design: scale not given: the % may be the effect or the level left
[4] = target: Protein mono-ADP-ribosyltransferase PARP9 (Homo sapiens, UniProt Q8IXQ6); assay: Inhibition of PARP9 (unknown origin)

IC50 [1] [µM]	IC50 [2] [µM]	IC50 [4] [µM]	SMILES	Activity [3] [%]
3.4	0.427	–	Nc1ncc2c(n1)CNC(=O)c1[nH]c(Br)c(Br)c1-2	–
–	–	> 50	C[C@@H](COCCC(=O)N1CCN(c2ncc(C(F)(F)F)cn2)CC1)Nc1cn[nH]c(=O)c1C(F)(F)F [ATAMPARIB]	49
